Several values for one entry are separate records, joined by “and”; a condition that tells them apart may be missing. Identical values can stand only once. Toxic doses and inconclusive results are not listed. The calls were made as follows: active = survival T/C of 150% or more; inactive = T/C below 125% in these data.
Tested on: P388 leukemia ip, CD2F1 mice, survival T/C
Assay: NCI In Vivo Anticancer Drug Screen. Data for tumor model P388 Leukemia (intraperitoneal) in CD2F1 (CDF1) mice
Conditions: endpoint: median survival time, higher = longer survival
In short: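 Mice carrying the transplanted tumor received test compound or vehicle. Survival was recorded in each group, and the value is the treated-group measurement divided by that of the vehicle-treated control group.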

[1] = dose: 50.0 mg/kg/injection, schedule: Q01DX005 (ip), vehicle: saline with Tween-80
[2] = dose: 100.0 mg/kg/injection, schedule: Q01DX005 (ip), vehicle: saline with Tween-80
[3] = dose: 200.0 mg/kg/injection, schedule: Q01DX005 (ip), vehicle: saline with Tween-80
[4] = dose: 50.0 mg/kg/injection, schedule: Q01DX009 (ip), vehicle: Klucel (hydroxypropylcellulose) (HPC)
[5] = dose: 100.0 mg/kg/injection, schedule: Q01DX009 (ip), vehicle: Klucel (hydroxypropylcellulose) (HPC)
[6] = dose: 200.0 mg/kg/injection, schedule: Q01DX009 (ip), vehicle: Klucel (hydroxypropylcellulose) (HPC)
[7] = dose: 60.0 mg/kg/injection, schedule: Q01DX005 (ip), vehicle: saline with Tween-80
[8] = dose: 120.0 mg/kg/injection, schedule: Q01DX005 (ip), vehicle: saline with Tween-80
[9] = dose: 240.0 mg/kg/injection, schedule: Q01DX005 (ip), vehicle: saline with Tween-80
[10] = dose: 50.0 mg/kg/injection, schedule: Q01DX009 (ip), vehicle: saline
[11] = dose: 100.0 mg/kg/injection, schedule: Q01DX009 (ip), vehicle: saline
[12] = dose: 200.0 mg/kg/injection, schedule: Q01DX009 (ip), vehicle: saline
[13] = dose: 60.0 mg/kg/injection, schedule: Q01DX005 (ip), vehicle: Klucel (hydroxypropylcellulose) (HPC)
[14] = dose: 120.0 mg/kg/injection, schedule: Q01DX005 (ip), vehicle: Klucel (hydroxypropylcellulose) (HPC)
[15] = dose: 50.0 mg/kg/injection, schedule: Q01DX009 (ip), vehicle: saline with Tween-80
[16] = dose: 100.0 mg/kg/injection, schedule: Q01DX009 (ip), vehicle: saline with Tween-80
[17] = dose: 200.0 mg/kg/injection, schedule: Q01DX009 (ip), vehicle: saline with Tween-80
[18] = dose: 100.0 mg/kg/injection, schedule: Q04DX003 (ip), vehicle: Klucel (hydroxypropylcellulose) (HPC)

Measured: T/C

Cc1cc(N=Cc2c(CO)cnc(C)c2O)c(N=Cc2c(CO)cnc(C)c2O)cc1C.[Zn]
inactive: [1] 100 % of control | [2] 99 % of control | [3] 100 % of control

CNc1ccc(Cl)cc1SSc1cc(Cl)ccc1NC
inactive: dose: 50.0 mg/kg/injection, schedule: Q01DX001 (ip), vehicle: Klucel (hydroxypropylcellulose) (HPC) 100 % of control | dose: 100.0 mg/kg/injection, schedule: Q01DX001 (ip), vehicle: Klucel (hydroxypropylcellulose) (HPC) 100 % of control | dose: 200.0 mg/kg/injection, schedule: Q01DX001 (ip), vehicle: Klucel (hydroxypropylcellulose) (HPC) 100 % of control

Cc1cc(N/N=C/c2cccnc2)c2ccccc2n1
inactive: [4] 94 % of control | [5] 100 % of control | [6] 98 % of control

CCCCCCCCCCN(CCCCCCCCCC)CC(=O)c1ccc2cc(Br)c3ccccc3c2c1
inactive: dose: 25.0 mg/kg/injection, schedule: Q01DX005 (ip), vehicle: Klucel (hydroxypropylcellulose) (HPC) 96 % of control | dose: 50.0 mg/kg/injection, schedule: Q01DX005 (ip), vehicle: Klucel (hydroxypropylcellulose) (HPC) 89 % of control | dose: 100.0 mg/kg/injection, schedule: Q01DX005 (ip), vehicle: Klucel (hydroxypropylcellulose) (HPC) 98 % of control

Clc1cccc2nncn12
inactive: dose: 50.0 mg/kg/injection, schedule: Q01DX001 (ip), vehicle: saline 98 % of control | dose: 100.0 mg/kg/injection, schedule: Q01DX001 (ip), vehicle: saline 102 % of control | dose: 200.0 mg/kg/injection, schedule: Q01DX001 (ip), vehicle: saline 100 % of control

COCCCN=C(N)N
inactive: dose: 50.0 mg/kg/injection, schedule: Q04DX003 (ip), vehicle: saline 109 % of control | dose: 100.0 mg/kg/injection, schedule: Q04DX003 (ip), vehicle: saline 100 % of control | dose: 200.0 mg/kg/injection, schedule: Q04DX003 (ip), vehicle: saline 95 % of control

Cc1ccc(S(=O)(=O)N/N=C2/C(=O)N(c3ccc(Cl)cc3C)C(=O)C(=O)C2c2nc3ccccc3s2)cc1 (stereo not given)
inactive: [7] 98 % of control | [8] 103 % of control | [9] 104 % of control

NC1=C(O)C(=O)C(c2ccccn2)O1 (stereo not given)
inactive: dose: 25.0 mg/kg/injection, schedule: Q01DX001 (ip), vehicle: other 105 % of control | dose: 50.0 mg/kg/injection, schedule: Q01DX001 (ip), vehicle: other 119 % of control | dose: 100.0 mg/kg/injection, schedule: Q01DX001 (ip), vehicle: other 116 % of control

O=C(O)Cc1ccc(-c2cn3c(n2)sc2ccccc23)cc1
inactive: [10] 108 % of control | [11] 107 % of control | [12] 112 % of control

CC(O)c1cc(=O)[nH][nH]1 (stereo not given)
inactive: dose: 50.0 mg/kg/injection, schedule: Q01DX005 (ip), vehicle: saline 105 % of control | dose: 100.0 mg/kg/injection, schedule: Q01DX005 (ip), vehicle: saline 99 % of control | dose: 200.0 mg/kg/injection, schedule: Q01DX005 (ip), vehicle: saline 110 % of control

COc1ccc(/C=C/C(=N/NC(=O)c2ccccc2)C(C)CN(C)C)cc1 (stereo not given)
inactive: [13] 104 % of control | [14] 111 % of control

COC(=O)C1CC=CCC1C(=O)O (stereo not given)
inactive: [15] 93 % of control | [16] 95 % of control | [17] 99 % of control

c1ccc2c(c1)OCc1nccn1-2
inactive: [13] 99 % of control | [14] 100 % of control

C=CCNC(=O)SCC
inactive: [1] 107 % of control | [2] 116 % of control

O=CNC(NC=O)NC=O
inactive: dose: 25.0 mg/kg/injection, schedule: Q01DX009 (ip), vehicle: saline 109 % of control | [10] 97 % of control | [11] 105 % of control | [12] 104 % of control

Cc1c([N+](=O)[O-])oc2c1C(=O)N([N+](=O)[O-])CCC2
inactive: [18] 114 % of control

Cn1c(-c2ccc(Cl)cc2)cc2cc(CN3C(=O)c4ccccc4C3=O)ccc21
inactive: dose: 25.0 mg/kg/injection, schedule: Q04DX003 (ip), vehicle: Klucel (hydroxypropylcellulose) (HPC) 95 % of control | dose: 50.0 mg/kg/injection, schedule: Q04DX003 (ip), vehicle: Klucel (hydroxypropylcellulose) (HPC) 96 % of control | [18] 87 % of control and 88 % of control | dose: 400.0 mg/kg/injection, schedule: Q04DX003 (ip), vehicle: Klucel (hydroxypropylcellulose) (HPC) 87 % of control

CC1CCC(SC2CC(=O)CCC2=O)CC1 (stereo not given)
inactive: [1] 104 % of control and 115 % of control | [2] 106 % of control and 115 % of control | [3] 122 % of control

Cn1c(-c2ccccc2)c(-c2ccccc2)c(=O)c(-c2ccccc2)c1-c1ccccc1
inactive: [4] 92 % of control | [5] 92 % of control | [6] 91 % of control

Clc1cc(Cl)c(Cl)nn1
inactive: dose: 25.0 mg/kg/injection, schedule: Q01DX009 (ip), vehicle: Klucel (hydroxypropylcellulose) (HPC) 98 % of control | [4] 94 % of control | [5] 92 % of control

O=C(O)C(CCc1nc2ccccc2[nH]1)NS(=O)(=O)c1ccccc1 (stereo not given)
inactive: dose: 12.5 mg/kg/injection, schedule: Q01DX009 (ip), vehicle: saline with Tween-80 115 % of control | dose: 25.0 mg/kg/injection, schedule: Q01DX009 (ip), vehicle: saline with Tween-80 95 % of control | [15] 103 % of control and 91 % of control | [16] 102 % of control | [17] 102 % of control

Nc1nc2c(C(=O)c3ccco3)nnn2c2cccc(Cl)c12
inactive: [7] 100 % of control | [8] 104 % of control | [9] 104 % of control

CC(=O)Nc1ccc(SSc2ccc(NC(C)=O)c3cccnc23)c2ncccc12
inactive: dose: 0.78 mg/kg/injection, schedule: Q01DX005 (ip), vehicle: saline with Tween-80 91 % of control | dose: 1.56 mg/kg/injection, schedule: Q01DX005 (ip), vehicle: saline with Tween-80 91 % of control | dose: 3.13 mg/kg/injection, schedule: Q01DX005 (ip), vehicle: saline with Tween-80 90 % of control | dose: 12.5 mg/kg/injection, schedule: Q01DX005 (ip), vehicle: saline with Tween-80 86 % of control | dose: 25.0 mg/kg/injection, schedule: Q01DX005 (ip), vehicle: saline with Tween-80 95 % of control | [1] 115 % of control

COc1cc(OC)c(C(C)=O)c(OC)c1OC
inactive: [15] 106 % of control | [16] 113 % of control | [17] 106 % of control

O=C1c2ccccc2CC12OC2c1ccncc1 (stereo not given)
inactive: dose: 100.0 mg/kg/injection, schedule: Q04DX002 (ip), vehicle: Klucel (hydroxypropylcellulose) (HPC) 104 % of control | dose: 200.0 mg/kg/injection, schedule: Q04DX002 (ip), vehicle: Klucel (hydroxypropylcellulose) (HPC) 100 % of control | dose: 400.0 mg/kg/injection, schedule: Q04DX002 (ip), vehicle: Klucel (hydroxypropylcellulose) (HPC) 106 % of control

CC1=CC(O/C=C2\C(=O)OC3C=CCC23)OC1=O (stereo not given)
inactive: dose: 100.0 mg/kg/injection, schedule: Q04DX002 (ip), vehicle: suspension in saline 99 % of control | dose: 200.0 mg/kg/injection, schedule: Q04DX002 (ip), vehicle: suspension in saline 98 % of control | dose: 400.0 mg/kg/injection, schedule: Q04DX002 (ip), vehicle: suspension in saline 111 % of control

From PubChem BioAssay AID330 (DTP/NCI, 2004)
